Where two headings read alike, the source gives them in different places. Ends that are not written are not given here.
How the values were obtained:
C1s = molecular target: T1, C1s (Homo sapiens, UniProt P09871); assay: C1s assay by inhibition of fluid phase C4 activation; assay type: biochemical
T1 construct: prepared from pooled human plasma; from tissue; host or cells: pooled human plasma
T1 sequence (P09871 16-688): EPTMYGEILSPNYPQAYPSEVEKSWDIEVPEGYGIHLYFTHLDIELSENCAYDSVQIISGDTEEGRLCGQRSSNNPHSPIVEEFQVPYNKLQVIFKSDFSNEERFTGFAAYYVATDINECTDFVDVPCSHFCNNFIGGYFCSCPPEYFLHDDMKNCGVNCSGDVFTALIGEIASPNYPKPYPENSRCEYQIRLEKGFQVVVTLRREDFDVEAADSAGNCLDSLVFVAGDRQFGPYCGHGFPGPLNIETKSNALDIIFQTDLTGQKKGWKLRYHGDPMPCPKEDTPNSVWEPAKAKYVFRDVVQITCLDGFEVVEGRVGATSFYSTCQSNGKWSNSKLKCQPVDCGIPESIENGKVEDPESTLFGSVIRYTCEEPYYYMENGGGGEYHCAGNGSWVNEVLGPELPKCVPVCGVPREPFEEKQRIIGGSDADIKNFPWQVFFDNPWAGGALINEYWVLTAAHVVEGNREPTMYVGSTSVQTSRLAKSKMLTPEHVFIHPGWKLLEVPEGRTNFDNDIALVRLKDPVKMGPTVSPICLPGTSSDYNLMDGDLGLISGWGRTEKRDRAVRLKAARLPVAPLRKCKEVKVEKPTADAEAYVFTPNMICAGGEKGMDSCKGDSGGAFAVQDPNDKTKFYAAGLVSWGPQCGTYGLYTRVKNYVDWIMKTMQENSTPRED
Procedure: Highly purified C3, C4, Factor D, Factor B, and C1s were prepared from pooled human plasma. Factors B and C4 were radiolabeled by periodate oxidation of sialic acid residues, followed by reduction with tritiated sodium borohydride. In a representative experiment, a solution of 1.2 mg of factor B in 1.8 ml of PBS was treated with 70 μl of 0.1M NaIO4. After 10 min incubation on ice, excess reagent was removed by filtration over "SEPHADEX®" which is a matrix for gel chromatography (1.0 cm×20 cm). To the protein pool was added 60 μl of NaB[^3 H]4 solution and incubated for 30 min on ice. Labeled protein was separated from excess reagent by desalting or dialysis. Human C4 was radiolabeled in the same manner. Radiolabeled proteins were stored at -70° C. in PBS. The specific radioactivity of ^3 H factor B was about 10,000 CPM/μg and that of ^3 H-C4 was 5,000 CPM/μg.
The cleavage of C4 was studied by incubating 10 μg of tritiated C4 with 3-5 ng of C1s at 37° C. for 30 min in 100 μl of PBS (pH 7.10) containing different concentrations of inhibitor. The reaction was stopped by the addition of 2-mercaptoethanol. The extent of cleavage was analyzed by SDS-polyacrylamide gel electrophoresis. The stained bands corresponding to C4α and C4α' were cut out and sliced. The radioactivity of the fragments was measured by liquid scintillation counting. The percent cleavage of the reaction was calculated as follows: [formula]
Electrophoresis was carried out under reducing conditions in the Laemmli system using slab gel of 8% polyacrylamide. The gels were stained and destained (Fairbanks et al. Biochemistry (1971) 10:2606).
The percent inhibition of the reaction was calculated according to the following relationship: [formula]
A: % cleavage without inhibitor
B: % cleavage with inhibitor
The concentration inducing 50% inhibition was obtained by plotting the percent inhibition on a probability graph (National Blank Book Co., No. 12-083) on the ordinate and the log of the inhibitor concentration on the abscissa. From this graph, a 50% inhibition concentration IC50 was obtained and this value was employed to express the activity.

Thrombin = Thrombin (Homo sapiens, UniProt P00734); assay: Coagulation inhibition assay, thrombin (fibrinogen clotting end point); assay type: biochemical; conditions: 40 μM peptide
Procedure: Inhibitory activity of subject peptides toward thrombin and Factor Xa were done in the following manner. Mix 100 μL Thrombin (3.125 units/ml, 1.125 μg/ml) in TAB with […] Peptide in TAB and incubate for 1 minute at 37° C. Add 50 μL Fibrinogen (2 mg/ml)and measure clotting end point (in seconds) in a Fibrometer (BBL) TAB=Thrombin Assay Buffer: 0.15M NaCl, 6.6 gm/L PEG-6000, 0.01M Imidazole, 0.01 CaCl2, pH 7.4

Factor Xa = Factor Xa (Homo sapiens, UniProt P00742); assay: Coagulation inhibition assay, Factor Xa (clotting of Factor X deficient plasma); assay type: biochemical; conditions: 40 μM peptide
Chain of Factor Xa (P00742 235-488 limits assumed): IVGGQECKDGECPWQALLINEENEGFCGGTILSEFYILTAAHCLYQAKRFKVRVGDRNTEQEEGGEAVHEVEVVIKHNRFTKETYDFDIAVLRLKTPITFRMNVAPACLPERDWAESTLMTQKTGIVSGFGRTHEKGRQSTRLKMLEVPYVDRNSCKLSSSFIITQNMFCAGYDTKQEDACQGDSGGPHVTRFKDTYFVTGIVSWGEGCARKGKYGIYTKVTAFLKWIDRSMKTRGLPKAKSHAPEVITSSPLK
Chain of Factor Xa (P00742 41-179 partner limits assumed): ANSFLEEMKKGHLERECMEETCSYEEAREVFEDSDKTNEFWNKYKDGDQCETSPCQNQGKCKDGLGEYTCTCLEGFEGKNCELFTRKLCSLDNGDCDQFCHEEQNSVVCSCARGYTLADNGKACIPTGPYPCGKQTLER
Procedure: Inhibitory activity of subject peptides toward thrombin and Factor Xa were done in the following manner.
Mix 50 μL Factor Xa (0.1 μg/ml) in TBSA with 100 μL Peptide in TBSA and 50 μL CaCl2 25 mM and incubate for 1 minute at 37° C. Add 50 μL Factor X deficient plasma/RBC (10/1) and measure clotting end point (in seconds) in a Fibrometer (BBL)
TBSA=Tris-Saline with Bovine Serum Albumin: 0.1M NaCl,0.05 M Tris-HCl, 1 mg/ml BSA, 0.1% NaN3
Factor X deficient plasma: George King Biomedical (GK 1004) RBC=Rabbit Brain Cephalin: Sigma Chemical Co. St. Louis, Mo.

complement activation = assay: Reverse passive arthus reaction (RPAR), histopathology of injection sites; assay type: in vivo, guinea pigs; parameters: key: 0 indicating no acute inflamation; 1 indication minimal acute inflammation; 2 indicating mild acute inflammation; 3 indicating moderate acute inflammation; conditions: guinea pig, intradermal injection of peptide without antibody
Procedure: These exemplary peptide inhibitors (peptides 13, 7 and 27) were assayed for in vivo activity in inhibiting complement activation using the reverse passive arthus reaction (RPAR). RPAR is a model of complement-mediated damage due to activation via interaction with antigen/antibody complexes. Female guinea pigs (400 gm) were pretreated intracardially with bovine serum albumin and Evans blue dye. Ninety minutes later they received bilateral intradermal injections of peptide inhibitor or control material in the thoracolumbar region. Injection sites were excised postmortem and fixed in 10% buffered formalin for pathological evaluation. The peptides were administered to obtain an initial level of […] in the circulatory system.
The histopathological results are outlined below. The degree of inflammation was scored as follows: 0 indicating no acute inflamation; 1 indication minimal acute inflammation; 2 indicating mild acute inflammation; and 3 indicating moderate acute inflammation.

Plasma Kallikrein = molecular target: T2, Plasma Kallikrein (Homo sapiens, UniProt P03952); assay: Plasma kallikrein assay (Chromozym PK); assay type: biochemical; conditions: for Kallikrein % inhibition: 50 μM peptide; for inhibition at 100 µM: 100 μM peptide
T2 construct: purchased Sigma K-3126
T2 sequence (P03952 20-638): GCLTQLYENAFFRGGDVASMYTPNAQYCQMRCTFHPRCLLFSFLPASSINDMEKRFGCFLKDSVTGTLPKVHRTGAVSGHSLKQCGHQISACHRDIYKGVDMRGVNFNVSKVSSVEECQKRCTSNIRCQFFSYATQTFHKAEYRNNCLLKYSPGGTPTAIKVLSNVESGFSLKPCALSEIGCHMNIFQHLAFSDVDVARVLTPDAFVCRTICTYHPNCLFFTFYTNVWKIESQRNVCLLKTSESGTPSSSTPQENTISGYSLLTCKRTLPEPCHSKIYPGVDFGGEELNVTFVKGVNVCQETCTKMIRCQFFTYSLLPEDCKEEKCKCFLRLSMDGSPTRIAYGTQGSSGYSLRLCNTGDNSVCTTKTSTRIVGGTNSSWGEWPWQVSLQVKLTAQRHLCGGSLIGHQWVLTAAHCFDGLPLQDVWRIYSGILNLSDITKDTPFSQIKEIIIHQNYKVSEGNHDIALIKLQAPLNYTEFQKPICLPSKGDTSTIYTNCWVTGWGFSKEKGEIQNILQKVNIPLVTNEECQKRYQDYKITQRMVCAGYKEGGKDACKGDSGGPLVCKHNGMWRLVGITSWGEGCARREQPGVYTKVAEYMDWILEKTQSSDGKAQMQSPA
Procedure: Buffer 150 mM Tris·HCl, pH 8.0
Substrate Benzyl-Pro-Phe-Arg-pNa (Chromozym PK, Boeringer Mannheim), 10 mM in deionized water.
Enzyme Plasma Kallikrein (Sigma, K-3126), 0.0312 μ/ml. Used undiluted.
Inhibitor Dissolved at desired concentrations in deionized water or DMSO plus deionized water depending on solubility.
4. Incubate mixture for 5 min at 25° C.
6. Measure rate spectrophotometrically at […] at 25° C.
2. Add appropriate volume of peptide solution
3. Add adjusted volume of buffer compensating for volume of peptide solution.
4. Add an adjusted volume of DMSO to maintain a final amount of 25 μl in the assay
5. Incubate mixture for 5 min at 25° C.
7. Measure rate spectrophotometrically at […] at 25° C.
Inhibition (%) is calculated in the same manner as in previous assays.

[1] = Tables VI and VIII, % 50, read-out: C1s, μM concentration listed for 50 % inhibition

inhibition at 40 µM (Thrombin) [%]	inhibition at 40 µM (Factor Xa) [%]	IC50 (C1s; [1]) [µM]	Compound	also measured
97			AGRSLNPNRVTFKANRPFLVFIREVPLNTIIFLGRVANP [Peptide 27]	IC50 (C1s; Table X, μM concentration at which protease was inhibited 50%, read-out: IC50 C1S): 12 µM; Degree of inflammation, mean score, protease inhibitor only (complement activation): 1
		6	IVRFNRPFLLIIVPTDTQNIFFLSKVTNPSKPR [Peptide 22]	Thrombin inhibition (Thrombin): 90%; Factor Xa % inhibition (Factor Xa): 97%; Kallikrein % inhibition (Plasma Kallikrein): 58%

Continued, compound first:

Compound	inhibition at 40 µM (Thrombin) [%]	inhibition at 40 µM (Factor Xa) [%]	IC50 (C1s; [1]) [µM]	also measured
CC[C@H](C)[C@H](NC(=O)[C@H](CC(C)C)NC(=O)[C@H](Cc1ccccc1)NC(=O)[C@@H](NC(=O)[C@H](Cc1ccccc1)NC(=O)[C@@H]1CCCN1C(=O)[C@H](CCCCN)NC(=O)[C@H](CC(N)=O)NC(=O)[C@H](Cc1ccccc1)NC(=O)[C@H](CCCCN)NC(=O)[C@@H](NC(=O)[C@H](CCC(=O)O)NC(=O)[C@@H]1CCCN1C(=O)[C@@H]1CCCN1)C(C)C)C(C)C)C(=O)O [Peptide 1]	0	31		inhibition at 200 µM (C1s; 200 μM peptide): 0%
IVRFNRPFLLII [Peptide 3]	50	73	55	
PNRVTFKANRPFLVFI [Peptide 2]		51	34	inhibition at 100 µM (Plasma Kallikrein): 21%
RVTFKANRPFLVFIREVPLNTIIFLGRVANP [Peptide 21]	97	99	6	inhibition at 100 µM (Plasma Kallikrein): 55%
VKFNKPFVFLLIEQNTKSPLFLGKVVNPTQK [Peptide 20]			12	Thrombin inhibition (Thrombin): 71%; Factor Xa % inhibition (Factor Xa): 87%; Kallikrein % inhibition (Plasma Kallikrein): 0%

— US5157019A, “Serine protease inhibitors” (Monsanto Company, priority 1991, dated 1992)
